In ChEMBL document CHEMBL6134890, “Terminally Symmetric β-Turn Peptides for Multidrug-Resistant Bacterial Infections” (J Med Chem, 2025):
Converted amounts (≈) assume the structure as drawn. The source made the active and inactive calls. The calls are words filed in the database; no cut-off is given here. Bridge positions count the residues as written; N and C are the ends. Square brackets hold non-standard residues; d marks the D form. Peptide text beside a SMILES is read from it. * marks the point of attachment. X1 = CC[C@H](C)CCCCC(=O)*; dDab = NCC[C@@H](N)C(=O)O; Dab = NCC[C@H](N)C(=O)O

Experiments:
Cell membrane [1] = test: Induction of outer membrane permeabilization in multi-drug resistant Escherichia coli assessed as NPN uptake at 1 to 4 times MIC measured within 1 min by fluorescence based analysis; type: subcellular
Staphylococcus aureus [2] = test: Antibacterial activity against Staphylococcus aureus ATCC 25923 at sub-inhibitory concentration measured after 7 passages for 18 hrs; type: functional, organism-based
Escherichia coli [3] = test: Antibacterial activity against Escherichia coli […] at sub-inhibitory concentration measured after 7 passages for 18 hrs; type: functional, organism-based
Cell membrane [4] = test: Induction of cytoplasmic membrane depolarization in multi-drug resistant Escherichia coli at 1 to 4 times MIC measured within 1 min by DiSC3-5 fluorescent dye based analysis
Escherichia coli [5] = test: Bactericidal activity against multi-drug resistant Escherichia coli at 1 times MIC preincubated with LPS for 1 hrs followed by bacterial addition and measured after 18 hrs by microplate reader based analysis; type: functional, organism-based; settings: time 19.0 hrs
Cell membrane [6] = test: Induction of cytoplasmic membrane depolarization in multi-drug resistant Staphylococcus aureus at 1 to 4 times MIC measured within 1 min by DiSC3-5 fluorescent dye based analysis
Staphylococcus aureus [7] = test: Antimicrobial activity against multi-drug resistant Staphylococcus aureus assessed as reduction in bacterial growth by broth dilution method; type: functional
BEAS-2B = test: Cytotoxicity against human BEAS-2B cells at 2 to 256 uM measured after 24 hrs by CCK-8 method; type: toxicity, cell-based; settings: dose 2-256 µM
Acinetobacter baumannii = test: Antimicrobial activity against multi-drug resistant Acinetobacter baumannii assessed as reduction in bacterial growth by broth dilution method; type: functional
Escherichia coli [8] = test: Antimicrobial activity against multi-drug resistant Escherichia coli assessed as reduction in bacterial growth by broth dilution method; type: functional
Klebsiella pneumoniae = test: Antimicrobial activity against multi-drug resistant Klebsiella pneumoniae assessed as reduction in bacterial growth by broth dilution method; type: functional
Staphylococcus aureus [9] = test: Antimicrobial activity against Staphylococcus aureus ATCC 25923 assessed as reduction in bacterial growth by broth dilution method; type: functional
HEK-293T = test: Cytotoxicity against HEK293T cells at 2 to 256 uM measured after 24 hrs by CCK-8 method; type: toxicity, cell-based; settings: human, dose 2-256 µM
L02 = test: Cytotoxicity against human LO2 cells at 2 to 256 uM measured after 24 hrs by CCK-8 method; type: toxicity, cell-based; settings: l02, 24 h, dose 2-256 µM
Enterococcus faecalis = test: Antimicrobial activity against multi-drug resistant Enterococcus faecalis assessed as reduction in bacterial growth by broth dilution method; type: functional
[10] = Hemolytic activity in human Red blood cell assessed as hemolysis incubated for 1 hrs by microplate reader based analysis; type: toxicity; settings: erythrocyte
Escherichia coli [11] = test: Antimicrobial activity against Escherichia coli ATCC 25922 assessed as reduction in bacterial growth by broth dilution method; type: functional
[12] = test system: Staphylococcus epidermidis; test: Antimicrobial activity against multi-drug resistant Staphylococcus epidermidis assessed as reduction in bacterial growth by broth dilution method; type: functional

CC(C)CCCCC(=O)N[C@@H](CCN)C(=O)N[C@H](C(=O)N[C@@H](CCN)C(=O)N[C@H]1CCNC(=O)[C@H]([C@@H](C)O)NC(=O)[C@H](CCN)NC(=O)[C@H](CCN)NC(=O)[C@H](CC(C)C)NC(=O)[C@@H](Cc2ccccc2)NC(=O)[C@@H](CCN)NC1=O)[C@@H](C)O.CC[C@H](C)CCCCC(=O)N[C@@H](CCN)C(=O)N[C@H](C(=O)N[C@@H](CCN)C(=O)N[C@H]1CCNC(=O)[C@H]([C@@H](C)O)NC(=O)[C@H](CCN)NC(=O)[C@H](CCN)NC(=O)[C@H](CC(C)C)NC(=O)[C@@H](Cc2ccccc2)NC(=O)[C@@H](CCN)NC1=O)[C@@H](C)O (X1-[Dab]T[Dab][Dab][dDab][dF]L[Dab][Dab]T; lactam 4-C)
Activity (Cell membrane [1]): Active | Activity (Staphylococcus aureus [2]): inactive | Activity (Escherichia coli [3]): inactive | Activity (Cell membrane [4]): Active | Activity (Escherichia coli [5]): inactive | Activity (Cell membrane [6]): inactive

CC(C)[C@H](NC(=O)[C@H](CCCCN)NC(=O)[C@@H](NC(=O)[C@H](CCCCN)NC(=O)[C@H](Cc1ccccc1)NC(=O)[C@@H]1CCCN1C(=O)[C@H](Cc1c[nH]c2ccccc12)NC(=O)[C@H](Cc1c[nH]c2ccccc12)NC(=O)[C@H](Cc1c[nH]c2ccccc12)NC(=O)[C@@H]1CCCN1C(=O)[C@H](Cc1ccccc1)NC(=O)[C@H](CCCCN)NC(=O)[C@@H](NC(=O)[C@H](CCCCN)NC(=O)[C@@H](NC(=O)[C@@H](N)CCCCN)C(C)C)C(C)C)C(C)C)C(=O)N[C@@H](CCCCN)C(N)=O (H-KVKVKFPWWWPFKVKVK-NH2)
MIC (Staphylococcus aureus [7]): 8 µM (≈ 17.8 µg/mL) | Activity (BEAS-2B): Toxic | MIC (Acinetobacter baumannii): 8 µM (≈ 17.8 µg/mL) | MIC (Escherichia coli [8]): 4 µM (≈ 8.92 µg/mL) | MIC (Klebsiella pneumoniae): 16 µM (≈ 35.7 µg/mL) | MIC (Staphylococcus aureus [9]): 8 µM (≈ 17.8 µg/mL) | Activity (HEK-293T): Toxic | Activity (L02): Toxic | MIC (Enterococcus faecalis): 4 µM (≈ 8.92 µg/mL) | HC10 [10]: 243.97 µM | MIC (Escherichia coli [11]): 4 µM (≈ 8.92 µg/mL) | MIC [12]: 4 µM (≈ 8.92 µg/mL)

CC(C)[C@H](NC(=O)[C@H](CCCCN)NC(=O)[C@@H](NC(=O)[C@H](CCCCN)NC(=O)[C@@H]1CCCN1C(=O)[C@H](Cc1c[nH]c2ccccc12)NC(=O)[C@H](Cc1c[nH]c2ccccc12)NC(=O)[C@H](Cc1c[nH]c2ccccc12)NC(=O)[C@@H]1CCCN1C(=O)[C@H](CCCCN)NC(=O)[C@@H](NC(=O)[C@H](CCCCN)NC(=O)[C@@H](NC(=O)[C@@H](N)CCCCN)C(C)C)C(C)C)C(C)C)C(=O)N[C@@H](CCCCN)C(N)=O (H-KVKVKPWWWPKVKVK-NH2)
MIC (Staphylococcus aureus [7]): 64 µM (≈ 124 µg/mL) | MIC (Acinetobacter baumannii): 64 µM (≈ 124 µg/mL) | MIC (Escherichia coli [8]): 32 µM (≈ 61.9 µg/mL) | MIC (Klebsiella pneumoniae): 32 µM (≈ 61.9 µg/mL) | MIC (Staphylococcus aureus [9]): 64 µM (≈ 124 µg/mL) | MIC (Enterococcus faecalis): 32 µM (≈ 61.9 µg/mL) | HC10 [10]: > 256 µM | MIC (Escherichia coli [11]): 32 µM (≈ 61.9 µg/mL) | MIC [12]: 32 µM (≈ 61.9 µg/mL)

NCCCC[C@H](NC(=O)[C@H](Cc1c[nH]c2ccccc12)NC(=O)[C@H](CCCCN)NC(=O)[C@H](Cc1ccccc1)NC(=O)[C@@H]1CCCN1C(=O)[C@H](Cc1c[nH]c2ccccc12)NC(=O)[C@H](Cc1c[nH]c2ccccc12)NC(=O)[C@H](Cc1c[nH]c2ccccc12)NC(=O)[C@@H]1CCCN1C(=O)[C@H](Cc1ccccc1)NC(=O)[C@H](CCCCN)NC(=O)[C@H](Cc1c[nH]c2ccccc12)NC(=O)[C@H](CCCCN)NC(=O)[C@@H](N)Cc1c[nH]c2ccccc12)C(=O)N[C@@H](Cc1c[nH]c2ccccc12)C(N)=O (H-WKWKFPWWWPFKWKW-NH2)
MIC (Staphylococcus aureus [7]): 16 µM (≈ 37.1 µg/mL) | MIC (Acinetobacter baumannii): 16 µM (≈ 37.1 µg/mL) | MIC (Escherichia coli [8]): 128 µM (≈ 297 µg/mL) | MIC (Klebsiella pneumoniae): 256 µM (≈ 594 µg/mL) | MIC (Staphylococcus aureus [9]): 8 µM (≈ 18.6 µg/mL) | MIC (Enterococcus faecalis): 16 µM (≈ 37.1 µg/mL) | HC10 [10]: 6.82 µM | MIC (Escherichia coli [11]): 128 µM (≈ 297 µg/mL) | MIC [12]: 16 µM (≈ 37.1 µg/mL)

CC(C)CCCCC(=O)N[C@@H](CCN)C(=O)N[C@H](C(=O)N[C@@H](CCN)C(=O)N[C@H]1CCNC(=O)[C@H]([C@@H](C)O)NC(=O)[C@H](CCN)NC(=O)[C@H](CCN)NC(=O)[C@H](CC(C)C)NC(=O)[C@@H](Cc2ccccc2)NC(=O)[C@H](CCN)NC1=O)[C@@H](C)O.CC[C@H](C)CCCCC(=O)N[C@@H](CCN)C(=O)N[C@H](C(=O)N[C@@H](CCN)C(=O)N[C@H]1CCNC(=O)[C@H]([C@@H](C)O)NC(=O)[C@H](CCN)NC(=O)[C@H](CCN)NC(=O)[C@H](CC(C)C)NC(=O)[C@@H](Cc2ccccc2)NC(=O)[C@H](CCN)NC1=O)[C@@H](C)O (X1-[Dab]T[Dab][Dab][Dab][dF]L[Dab][Dab]T; lactam 4-C)
Activity (BEAS-2B): Non-toxic | Activity (HEK-293T): Non-toxic | Activity (L02): Non-toxic | HC10 [10]: > 256 µM
